biological target: GPR35 (Homo sapiens, UniProt Q9HC97); test: label-free dynamic mass redistribution; assay type: cell-based; details: read-out: EC50/IC50; agonist mode; HBSS, 10 mM HEPES, pH 7.4
Sequence (Q9HC97 whole entry): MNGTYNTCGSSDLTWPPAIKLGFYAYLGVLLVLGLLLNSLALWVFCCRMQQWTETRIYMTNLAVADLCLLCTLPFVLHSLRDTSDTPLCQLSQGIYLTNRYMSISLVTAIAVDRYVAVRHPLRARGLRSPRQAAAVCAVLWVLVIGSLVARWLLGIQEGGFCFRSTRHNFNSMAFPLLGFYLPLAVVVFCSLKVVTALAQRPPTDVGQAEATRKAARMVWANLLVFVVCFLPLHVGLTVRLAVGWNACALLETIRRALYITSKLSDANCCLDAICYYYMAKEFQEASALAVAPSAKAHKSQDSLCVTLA

Row | Structure (SMILES) | EC50 [µM]
1 | COc1c(O)cc2occ(-c3ccc(O)cc3)c(=O)c2c1O [LCDD-41, tectorigenin] | > 200
2 | O=C1c2c(O)cc(O)cc2O[C@H](c2ccc(O)c(O)c2)[C@H]1O [LCDD-68, taxifolin] | > 200
3 | O=C(/C=C/c1ccc(O)c(O)c1)O[C@@H]1[C@H](O)C[C@@](O)(C(=O)O)C[C@H]1OC(=O)/C=C/c1ccc(O)c(O)c1 [LCDD-79, isochlorogenic acid C] | 114
4 | O=C(/C=C/c1ccc(O)cc1)c1ccc(O)cc1O [LCDD-88, isoliquiritigenin] | > 200
5 | COc1c(/C=C/C(=O)c2ccc(O)cc2)ccc(O)c1O [LCDD-93, licochalcone B] | 25.1
6 | O=C(O)[C@H]1O[C@@H](Oc2cc3oc(-c4ccccc4)cc(=O)c3c(O)c2O)[C@H](O)[C@@H](O)[C@@H]1O [LCDD-117, baicalin] | > 200

— PMC8329432 (Journal of Ethnopharmacology, 2021)
